{
  "source": "paper PMC6935813",
  "about": "“Assessment of the Aromatase Inhibitory Activity of Ma-Huang-Tang (MHT) and Its Active Compounds” (Evidence-based Complementary and Alternative Medicine : eCAM, 2019)",
  "key": {"aromatase [1]": {"molecular_target": "T1, aromatase (Homo sapiens, UniProt P11511)", "T1 sequence (P11511 1-503)": "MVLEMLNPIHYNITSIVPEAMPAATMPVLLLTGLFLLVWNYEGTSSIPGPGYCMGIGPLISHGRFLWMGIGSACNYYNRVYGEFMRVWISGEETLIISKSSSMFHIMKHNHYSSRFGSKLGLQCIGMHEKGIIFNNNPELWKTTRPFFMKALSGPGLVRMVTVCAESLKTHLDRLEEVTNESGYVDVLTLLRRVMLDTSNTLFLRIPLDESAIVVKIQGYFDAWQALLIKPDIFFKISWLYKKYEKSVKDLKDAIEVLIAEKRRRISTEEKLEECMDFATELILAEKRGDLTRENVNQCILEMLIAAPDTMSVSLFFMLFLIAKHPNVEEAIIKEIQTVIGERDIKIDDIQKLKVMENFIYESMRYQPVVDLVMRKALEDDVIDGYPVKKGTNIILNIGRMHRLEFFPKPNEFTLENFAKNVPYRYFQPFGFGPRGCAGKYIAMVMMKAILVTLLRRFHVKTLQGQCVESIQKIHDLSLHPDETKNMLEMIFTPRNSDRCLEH", "assay": "Cell-free fluorescence-based aromatase inhibition assay (DBF hydrolysis)", "format": "biochemical", "set-up": "purchased Corning (Woburn, MA, USA)", "details": "DBF substrate", "experimental": "Supersomes human CYP19 was obtained from Corning (Woburn, MA, USA). Analytical-grade acetonitrile, methanol, and ultrapure water were purchased from J. T. Baker (Phillipsburg, NJ, USA). Trifluoroacetic acid was of analytical grade and was purchased from Sigma-Aldrich.\nThe inhibition of aromatase activity by MHT and each component was assessed by measuring the fluorescence intensity of fluorescein produced by the hydrolysis of DBF [20, 28]. […] A 100 μL mixture of aromatase and substrate (2 μM DBF, 40 pmol/mL aromatase, and 4 mg/mL albumin in 50 mM potassium phosphate, pH 7.4) was then added to the sample, and the resulting mixture was incubated for 30 min at 37°C in the dark. After the reaction, the sample was incubated with 150 μL of 2N NaOH for an additional 2 h at 37°C to remove impurities other than fluorescein. […] All experiments were performed three times at separate times.\nThe results are expressed as the means ± SEMs from multiple experiments. Paired Student's t-tests with Tukey's multiple comparison tests were performed to compare two groups using PRISM software (GraphPad, CA, USA). A p value <0.05 was considered to be statistically significant. Additionally, IC50 values were calculated by sigmoidal dose-response curve fitting (variable slope) using PRISM software."}, "aromatase [2]": {"molecular_target": "T1, aromatase", "assay": "Cell-based aromatase assay: estrone ELISA in KGN cells given androstenedione", "details": "estrone level by ELISA; maximum con. 5 mM; read-out: Aromatase inhibition IC50 in KGN cells", "experimental": "The human granulosa-like tumor cell line KGN was obtained from RIKEN BioResource Center (Ibaraki, JPN). The cells were grown in Dulbecco's modified Eagle's medium/Ham's F-12 nutrient mix (DMEM/F-12, Welgen, Daejeon, KOR) supplemented with 5% (v/v) fetal bovine serum (FBS) and 0.5% antibiotics (100 U/mL penicillin and 100 μg/mL streptomycin, Gibco BRL, NY, USA) in a humidified atmosphere of 5% CO2 at 37°C. Prior to treatment with MHT and its components in all the experiments, the cells were cultured for 24 h by switching to phenol-red free DMEM/H-12 medium (Welgen, Daejeon, KOR) with 5% (v/v) charcoal-stripped FBS (HyClone, Logan, UT, USA), and the samples were treated under the same conditions.\nCells (4 × 10^4 cells/mL) were placed on a 96-well tissue culture plate and incubated in DMEM/F-12 medium with 5% charcoal-stripped FBS (HyClone, Logan, UT, USA) overnight. After the addition of MHT or its components, the cells were incubated for 24 h. […] The estrone concentration in each of the samples was measured at 450 nm using a Synergy/HTX multimode reader (Bio-Tek Instruments Inc., VT, USA) with an estrone ELISA kit (Abnova, CA, USA), and the cell viability was measured using a CCK-8 assay (Dojindo Laboratories, Tokyo, JPN).\nAdditionally, IC50 values were calculated by sigmoidal dose-response curve fitting (variable slope) using PRISM software."}},
  "data": [
    {"smiles": "O=C/C=C/c1ccccc1", "note": "[Cinnamaldehyde (4), cinnamaldehyde]", "values": [
      {"measurement": "IC50", "setting": "aromatase [1]; maximum con. 10 mM", "result": "> 10000", "unit": "µM"}
    ]},
    {"smiles": "O=C1C[C@@H](c2ccc(O[C@@H]3O[C@H](CO)[C@@H](O)[C@H](O)[C@H]3O)cc2)Oc2cc(O)ccc21", "note": "[Liquiritin (5), liquiritin]", "values": [
      {"measurement": "IC50", "setting": "aromatase [1]; human CYP19 Supersomes", "result": 530, "unit": "µM"}
    ]},
    {"smiles": "O=C1CC(c2ccc(O)cc2)Oc2cc(O)ccc21", "note": "(centres unmarked) [Liquiritigenin (7), liquiritigenin]", "values": [
      {"measurement": "IC50", "setting": "aromatase [2]", "result": 1410, "unit": "µM"},
      {"measurement": "IC50", "setting": "aromatase [1]; maximum con. 10 mM", "result": 1610, "unit": "µM"}
    ]},
    {"smiles": "CC1(C)[C@@H](O[C@H]2O[C@H](C(=O)O)[C@@H](O)[C@H](O)[C@H]2O[C@@H]2O[C@H](C(=O)O)[C@@H](O)[C@H](O)[C@H]2O)CC[C@]2(C)[C@H]3C(=O)C=C4[C@@H]5C[C@@](C)(C(=O)O)CC[C@]5(C)CC[C@@]4(C)[C@]3(C)CC[C@@H]12", "note": "[Glycyrrhizin (8), glycyrrhizin]", "values": [
      {"measurement": "IC50", "setting": "aromatase [1]; maximum con. 10 mM", "result": "> 10000", "unit": "µM"}
    ]},
    {"smiles": "CN[C@@H](C)[C@H](O)c1ccccc1", "note": "[Ephedrine (1), ephedrine]", "values": [
      {"measurement": "IC50", "setting": "aromatase [1]; maximum con. 10 mM", "result": "> 10000", "unit": "µM"}
    ]},
    {"smiles": "O=C(O)/C=C/c1ccccc1", "note": "[Cinnamic acid (3), cinnamic acid]", "values": [
      {"measurement": "IC50", "setting": "aromatase [1]; maximum con. 10 mM", "result": "> 10000", "unit": "µM"}
    ]},
    {"smiles": "O=c1ccc2ccccc2o1", "note": "[Coumarin (2), coumarin]", "values": [
      {"measurement": "IC50", "setting": "aromatase [1]; maximum con. 10 mM", "result": "> 10000", "unit": "µM"}
    ]}
  ]
}
